Measurements taken from patent publication US6300065A, “Yeast cell surface display of proteins and uses thereof” (Board of Trustees of the University of Illinois, priority 1998, dated 2001).

Legend:
[1] = tested on: 4-4-20 anti-fluorescein scFv, wild-type, yeast surface displayed Aga2p fusion; assay: Competitive dissociation of labeled antigen from yeast surface displayed scFv, followed by flow cytometry; assay type: binding; details: 5-aminofluorescein as competitor
Protocol: (§1) Yeast cells bearing plasmid pCT202 were grown and labeled with anti-c-myc mAb 9E10 and FITC-dextran or biotin-fluorescein, as described. A fraction of the labeled population was analyzed flow cytometrically to determine the initial level of fluorescence. Non-fluorescent competitor (5-aminofluorescein) was added to a final concentration of approximately […] (~1000-fold excess) and the FITC or PE fluorescence of the c-myc positive cell population was followed as a function of time at room temperature (21-23° C.) on a Coulter Epics XL. Data were fitted as an exponential decay. The probability that a polyvalent antigen is bound to the cell as a function of time is given by P=1-(1-e^-kt)^N, where N is the valency, k is the kinetic rate constant for dissociation, and t is time. For long times t, this reduces to P=Ne^-kt. Thus, extrapolation of data for long t to time zero yields P=N, or a fluorescence intensity of Fext =N Fo, where Fext is the extrapolated fluorescence at the time of competitor addition and Fo is the actual initial fluorescence.

[2] = tested on: 4-4-20 anti-fluorescein scFv mutant 4M1.2, yeast surface displayed Aga2p fusion; assay: as above; assay type: binding; details: 23° C., 5-aminofluorescein as competitor
Protocol: as §1

[3] = tested on: 4-4-20 anti-fluorescein scFv mutant 4M1.1; assay: Soluble fluorescein dissociation kinetics by spectrofluorometry (fluorescence quenching, whole cells displaying scFv); assay type: binding; details: mutant 4M1.1 vs wild-type 4-4-20 scFv
Protocol: (§2) Binding to soluble fluorescein (FDS) was assayed by observing fluorescence quenching by whole cells displaying scFv. Cells were suspended at 2×10^7 cells/ml in TBS+0.1% BSA in a quartz cuvette thermostatted at 23° C. and titrated with FDS over a range of 0-7.5 nM. […] Control cells displaying an irrelevant scFv were titrated to obtain a slope for a two-parameter fit of an equilibrium binding model to the data, yielding equilibrium constants and effective scFv concentrations. Following the equilibrium titration, 5-aminofluorescein was added to 1 mM and the change in fluorescence of the sample followed with time to determine koff for FDS.

[4] = tested on: 4-4-20 anti-fluorescein scFv mutant 4M1.2; assay: as above; assay type: binding; details: mutant 4M1.2 vs wild-type 4-4-20 scFv
Protocol: as §2

[5] = biological target: 4-4-20 anti-fluorescein antibody; details: stated in discussion, no method given; cited from earlier work

Row | SMILES | monovalent dissociation rate constant (koff) for fluorescein-biotin ([1]; 21° C.) | koff for fluorescein-biotin ([1]; 23° C., wild-type) | koff for fluorescein-biotin [2] | improvement of soluble fluorescein dissociation kinetics relative to wild-type [3] | improvement of soluble fluorescein dissociation kinetics relative to wild-type [4] | Kd [5]
1 | O=C(CCCCCNC(=O)CCCC[C@@H]1SC[C@@H]2NC(=O)N[C@@H]21)NCCCCCNC(=S)Nc1ccc2c(c1)C(=O)OC21c2ccc(O)cc2Oc2cc(O)ccc21 [fluorescein-biotin] | 0.0039 s⁻¹ | 0.005 s⁻¹ | 0.0028 s⁻¹ |  |  | 
2 | O=C1OC2(c3ccc(O)cc3Oc3cc(O)ccc32)c2ccccc21 [fluorescein] |  |  |  | 2.2 fold | 2.2 fold | 0.4 nM
